What is called IC50 is the concentration at which inhibition is half-maximal. Higher therefore signals weaker potency in that assay.

Each structure is given as a SMILES string.

This note sets out measurements from article PMC9415947 (Pharmaceuticals, 2022).

One test has as its target T1, PI3Kδ (Homo sapiens, UniProt O00329).
T1 construct: purchased Merck Millipore
The experiment in a line: In vitro PI3K inhibition assay (ADP-Glo kinase assay), PI3Kδ. Type of test: biochemical. As to conditions: mean of two independent experiments. How it is done:
(§1) All compounds were tested in a biochemical assay that measured the inhibition of phosphatidylinositol […] production by PI3K isoforms using the ADP-Glo kinase assay (Promega). In addition, the effects of synthesized compounds on B cell proliferation were measured.
(§2) The potency and selectivity of compounds were assessed by measuring the ability of PI3K kinases to convert ATP to ADP during an enzymatic reaction in the presence of decreasing doses of tested compounds. The experiments were carried out using the ADP-Glo kinase assay kit (Promega), according to the manufacturer’s protocol. PI3Kα, PI3Kβ, PI3Kδ, and PI3Kγ have been purchased from Merck Millipore and phosphoinositol-4,5-bisphosphate (PIP2) lipid vesicles with phosphoserine from ThermoFisher Scientific were used as a substrate in the enzymatic reaction.
(§3) After the reaction, the ADP-Glo reagent and the kinase detection reagent were added sequentially with 40 min of incubation (25 °C, 600 rpm) after adding each reagent. Finally, the luminescence intensity was measured and the IC50 was calculated using GraphPad Prism 7 software. The presented results are the mean value of IC50 from at least two independent experiments.
In general terms: ADP-Glo turns the ADP formed in a reaction into a luminescent signal.

Another test deals with T2, PI3Kγ (Homo sapiens, UniProt P48736).
T2 construct: purchased Merck Millipore
T2 sequence (P48736 whole entry): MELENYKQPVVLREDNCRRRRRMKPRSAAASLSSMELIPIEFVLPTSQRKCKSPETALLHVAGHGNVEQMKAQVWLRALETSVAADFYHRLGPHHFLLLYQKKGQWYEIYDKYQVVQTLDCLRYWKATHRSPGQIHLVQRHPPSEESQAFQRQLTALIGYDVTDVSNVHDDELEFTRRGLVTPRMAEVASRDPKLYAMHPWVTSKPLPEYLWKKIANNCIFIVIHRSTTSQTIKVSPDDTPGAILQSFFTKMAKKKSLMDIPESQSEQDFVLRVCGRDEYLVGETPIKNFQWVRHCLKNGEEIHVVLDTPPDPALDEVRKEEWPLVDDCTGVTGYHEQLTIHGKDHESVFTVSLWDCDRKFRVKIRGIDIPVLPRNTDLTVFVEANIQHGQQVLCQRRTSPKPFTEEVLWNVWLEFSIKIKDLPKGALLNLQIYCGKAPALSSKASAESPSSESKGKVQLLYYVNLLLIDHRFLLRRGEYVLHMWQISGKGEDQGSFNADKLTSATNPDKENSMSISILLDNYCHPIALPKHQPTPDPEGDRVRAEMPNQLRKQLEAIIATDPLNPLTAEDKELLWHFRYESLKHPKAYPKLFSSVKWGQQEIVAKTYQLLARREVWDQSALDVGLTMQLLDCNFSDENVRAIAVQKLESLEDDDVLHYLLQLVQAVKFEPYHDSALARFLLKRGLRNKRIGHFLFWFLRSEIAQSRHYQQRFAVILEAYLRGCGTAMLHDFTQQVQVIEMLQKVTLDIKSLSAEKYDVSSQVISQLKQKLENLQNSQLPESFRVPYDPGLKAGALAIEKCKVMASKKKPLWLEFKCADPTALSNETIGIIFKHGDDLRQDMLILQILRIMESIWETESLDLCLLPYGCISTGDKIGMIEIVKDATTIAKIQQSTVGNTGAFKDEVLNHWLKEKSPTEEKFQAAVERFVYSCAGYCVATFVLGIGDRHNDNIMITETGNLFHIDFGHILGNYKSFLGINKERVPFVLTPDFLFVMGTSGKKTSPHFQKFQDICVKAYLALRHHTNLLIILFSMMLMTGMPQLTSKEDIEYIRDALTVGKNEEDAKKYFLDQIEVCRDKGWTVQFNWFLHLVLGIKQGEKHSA
Description: In vitro PI3K inhibition assay (ADP-Glo kinase assay), PI3Kγ. The class given is biochemical. As to conditions: for IC50: mean of two independent experiments; for Fold Selectivity γ/δ: ratio IC50 PI3Kγ / IC50 PI3Kδ. The procedure:
as §1, §2, §3

T1 sequence (O00329 whole entry, looked up): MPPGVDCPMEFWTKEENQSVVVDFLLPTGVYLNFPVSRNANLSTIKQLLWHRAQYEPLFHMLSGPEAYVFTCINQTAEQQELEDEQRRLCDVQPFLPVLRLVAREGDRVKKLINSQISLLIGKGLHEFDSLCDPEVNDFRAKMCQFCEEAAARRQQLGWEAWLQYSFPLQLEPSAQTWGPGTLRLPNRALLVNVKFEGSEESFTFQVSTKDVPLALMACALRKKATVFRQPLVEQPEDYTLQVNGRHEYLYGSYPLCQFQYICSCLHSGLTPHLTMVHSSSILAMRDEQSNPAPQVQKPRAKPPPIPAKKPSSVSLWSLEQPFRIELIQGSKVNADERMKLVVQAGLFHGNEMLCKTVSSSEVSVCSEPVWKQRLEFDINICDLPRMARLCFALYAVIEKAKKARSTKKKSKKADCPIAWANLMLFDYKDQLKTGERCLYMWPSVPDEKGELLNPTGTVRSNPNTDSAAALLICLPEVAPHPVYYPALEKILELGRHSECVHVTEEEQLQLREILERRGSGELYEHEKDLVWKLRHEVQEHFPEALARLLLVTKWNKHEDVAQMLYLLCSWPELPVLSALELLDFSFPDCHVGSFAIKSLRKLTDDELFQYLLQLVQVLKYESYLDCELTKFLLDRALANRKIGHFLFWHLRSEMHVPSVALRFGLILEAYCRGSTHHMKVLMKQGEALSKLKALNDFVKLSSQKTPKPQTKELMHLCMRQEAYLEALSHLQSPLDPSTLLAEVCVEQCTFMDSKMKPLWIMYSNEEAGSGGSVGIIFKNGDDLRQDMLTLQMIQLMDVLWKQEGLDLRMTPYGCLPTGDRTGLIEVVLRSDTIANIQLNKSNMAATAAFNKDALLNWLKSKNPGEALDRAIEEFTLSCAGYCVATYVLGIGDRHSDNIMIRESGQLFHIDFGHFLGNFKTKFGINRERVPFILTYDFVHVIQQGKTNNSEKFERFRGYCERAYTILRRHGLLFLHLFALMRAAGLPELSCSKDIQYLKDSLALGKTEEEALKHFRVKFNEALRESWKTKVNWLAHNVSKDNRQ

With `CN1CCN(Cc2cc3nc(-n4c(C(F)F)nc5ccccc54)cc(N4CCOCC4)n3n2)CC1` [Compound 37, 2-(difluoromethyl)-1-{2-[(4-methylpiperazin-1-yl)methyl]-7-(morpholin-4-yl)pyrazolo[1,5-a]pyrimidin-5-yl}-1H-1,3-benzimidazole], on PI3Kδ, inhibition was half-maximal at 0.351 µM (IC50). Moreover, on PI3Kγ, the IC50 came to 17.7 µM and the “Fold Selectivity γ/δ” value worked out at 50.
On to `CC1(O)CCN(C(=O)c2cc3nc(-n4c(C(F)F)nc5ccccc54)cc(N4CCOCC4)n3n2)CC1` [Compound 49, 1-{5-[2-(difluoromethyl)-1H-1,3-benzimidazol-1-yl]-7-(morpholin-4-yl)pyrazolo[1,5-a]pyrimidine-2-carbonyl}-4-methylpiperidin-4-ol], for which the IC50 against PI3Kδ came out at 0.213 µM; on PI3Kγ, 1.82 µM. Also, at PI3Kγ, the “Fold Selectivity γ/δ” value came out at 8.5.
Take `OCC1CCN(Cc2cc3nc(-n4c(C(F)F)nc5ccccc54)cc(N4CCOCC4)n3n2)CC1` [Compound 31, [1-({5-[2-(difluoromethyl)-1H-1,3-benzimidazol-1-yl]-7-(morpholin-4-yl)pyrazolo[1,5-a]pyrimidin-2-yl}methyl)piperidin-4-yl]methanol]: the IC50 against PI3Kδ turned out to be 0.593 µM. Moreover, at PI3Kγ, the IC50 was found to be 8.32 µM and the “Fold Selectivity γ/δ” value is 14.
As to `CC1(O)CCN(Cc2cc3nc(-n4c(C(F)F)nc5ccccc54)cc(N4CCOCC4)n3n2)CC1` [Compound 30, 1-({5-[2-(difluoromethyl)-1H-1,3-benzimidazol-1-yl]-7-(morpholin-4-yl)pyrazolo[1,5-a]pyrimidin-2-yl}methyl)-4-methylpiperidin-4-ol], the IC50 on PI3Kδ is 0.615 µM. Moreover, at PI3Kγ, the midpoint of inhibition, the IC50, lay at 7.55 µM and the “Fold Selectivity γ/δ” value was found to be 12.
For `N#CC1CCN(Cc2cc3nc(-n4c(C(F)F)nc5ccccc54)cc(N4CCOCC4)n3n2)CC1` [Compound 32, 1-({5-[2-(difluoromethyl)-1H-1,3-benzimidazol-1-yl]-7-(morpholin-4-yl)pyrazolo[1,5-a]pyrimidin-2-yl}methyl)piperidine-4-carbonitrile], the values for the IC50 at PI3Kδ and against PI3Kγ were 0.192 µM and 3.15 µM, respectively. For the same molecule, the “Fold Selectivity γ/δ” value at PI3Kγ is reported as 16.
In the case of `FC(F)c1nc2ccccc2n1-c1cc(N2CCOCC2)n2nc(CN3CCOCC3)cc2n1` [Compound 23, 2-(difluoromethyl)-1-[7-(morpholin-4-yl)-2-(morpholin-4-ylmethyl)pyrazolo[1,5-a]pyrimidin-5-yl]-1H-1,3-benzimidazole], the IC50 at PI3Kδ came to 0.135 µM. Moreover, at PI3Kγ, the IC50 amounted to 1.38 µM and the “Fold Selectivity γ/δ” value was 10.
Regarding `CN1CCN(C(=O)c2cc3nc(-n4c(C(F)F)nc5ccccc54)cc(N4CCOCC4)n3n2)CC1` [Compound 56, 2-(difluoromethyl)-1-[2-(4-methylpiperazine-1-carbonyl)-7-(morpholin-4-yl)pyrazolo[1,5-a]pyrimidin-5-yl]-1H-1,3-benzimidazole], the IC50 was found to be 0.768 µM at PI3Kδ and 11.4 µM against PI3Kγ.
With `O=C(c1cc2nc(-n3c(C(F)F)nc4ccccc43)cc(N3CCOCC3)n2n1)N1CCC(CO)CC1` [Compound 50, (1-{5-[2-(difluoromethyl)-1H-1,3-benzimidazol-1-yl]-7-(morpholin-4-yl)pyrazolo[1,5-a]pyrimidine-2-carbonyl}piperidin-4-yl)methanol], the IC50 against PI3Kδ is 0.09 µM; against PI3Kγ, 1.78 µM. In addition, at PI3Kγ, the “Fold Selectivity γ/δ” value is reported as 20.
Molecule `O[C@H]1CCN(Cc2cc3nc(-n4c(C(F)F)nc5ccccc54)cc(N4CCOCC4)n3n2)C1` [Compound 21, (3S)-1-({5-[2-(difluoromethyl)-1H-1,3-benzimidazol-1-yl]-7-(morpholin-4-yl)pyrazolo[1,5-a]pyrimidin-2-yl}methyl)pyrrolidin-3-ol] displayed an IC50 on PI3Kδ of 0.956 µM. On PI3Kγ, the IC50 turned out to be 10.9 µM and the “Fold Selectivity γ/δ” value is on record as 11.
Molecule `C[C@@H]1COCCN1Cc1cc2nc(-n3c(C(F)F)nc4ccccc43)cc(N3CCOCC3)n2n1` [Compound 25, 2-(difluoromethyl)-1-(2-{[(3R)-3-methylmorpholin-4-yl]methyl}-7-(morpholin-4-yl)pyrazolo[1,5-a]pyrimidin-5-yl)-1H-1,3-benzimidazole] displayed an IC50 against PI3Kδ of 0.647 µM. Further, on PI3Kγ, the IC50 was 1.97 µM and the “Fold Selectivity γ/δ” value is given as 3.0.
`OC1CCN(Cc2cc3nc(-n4c(C(F)F)nc5ccccc54)cc(N4CCOCC4)n3n2)CC1` [Compound 34, 1-({5-[2-(difluoromethyl)-1H-1,3-benzimidazol-1-yl]-7-(morpholin-4-yl)pyrazolo[1,5-a]pyrimidin-2-yl}methyl)piperidin-4-ol] had an IC50 at PI3Kδ of 0.561 µM. On PI3Kγ, the IC50 turned out to be 4.32 µM and the “Fold Selectivity γ/δ” value was 7.7.
Molecule `O=C(c1cc2nc(-n3c(C(F)F)nc4ccccc43)cc(N3CCOCC3)n2n1)N1CCC(O)CC1` [Compound 53, 1-{5-[2-(difluoromethyl)-1H-1,3-benzimidazol-1-yl]-7-(morpholin-4-yl)pyrazolo[1,5-a]pyrimidine-2-carbonyl}piperidin-4-ol] had a concentration for half-maximal inhibition (IC50) at PI3Kδ of 0.195 µM. On PI3Kγ, the IC50 was 2.08 µM and the “Fold Selectivity γ/δ” value is recorded as 11.
`CC(C)(C(N)=O)N1CCN(C(=O)c2cc3nc(-n4c(C(F)F)nc5ccccc54)cc(N4CCOCC4)n3n2)CC1` [Compound 42, 2-(4-{5-[2-(difluoromethyl)-1H-1,3-benzimidazol-1-yl]-7-(morpholin-4-yl)pyrazolo[1,5-a]pyrimidine-2-carbonyl}piperazin-1-yl)-2-methylpropanamide]: the results for the 50% inhibitory concentration (IC50) at PI3Kδ and against PI3Kγ were 0.074 µM and 3.59 µM, respectively. Moreover, the “Fold Selectivity γ/δ” value on PI3Kγ is on record as 48.
Turning to `NC1CCN(Cc2cc3nc(-n4c(C(F)F)nc5ccccc54)cc(N4CCOCC4)n3n2)C1` (centres unmarked) [Compound 20, 1-({5-[2-(difluoromethyl)-1H-1,3-benzimidazol-1-yl]-7-(morpholin-4-yl)pyrazolo[1,5-a]pyrimidin-2-yl}methyl)pyrrolidin-3-amine], inhibition against PI3Kδ was half-maximal at 1.89 µM (IC50). At PI3Kγ, half-maximal inhibition (IC50) required 22.1 µM and the “Fold Selectivity γ/δ” value is 12.
`NC1CCN(C(=O)c2cc3nc(-n4c(C(F)F)nc5ccccc54)cc(N4CCOCC4)n3n2)C1` (centres unmarked) [Compound 45, 1-{5-[2-(difluoromethyl)-1H-1,3-benzodiazol-1-yl]-7-(morpholin-4-yl)pyrazolo[1,5-a]pyrimidine-2-carbonyl}pyrrolidin-3-amine]: the results for the half-inhibitory concentration (IC50) against PI3Kδ and against PI3Kγ were 1.7 µM and 23.3 µM, respectively. At PI3Kγ, the “Fold Selectivity γ/δ” value came to 14.
In turn, `OCC1CCCN1Cc1cc2nc(-n3c(C(F)F)nc4ccccc43)cc(N3CCOCC3)n2n1` (centres unmarked) [Compound 19, [1-({5-[2-(difluoromethyl)-1H-1,3-benzimidazol-1-yl]-7-(morpholin-4-yl)pyrazolo[1,5-a]pyrimidin-2-yl}methyl)pyrrolidin-2-yl]methanol] showed an IC50 against PI3Kδ of 1.07 µM. Moreover, at PI3Kγ, the IC50 came to 4.47 µM and the “Fold Selectivity γ/δ” value was determined as 4.2.
As for `N#CC1CCN(C(=O)c2cc3nc(-n4c(C(F)F)nc5ccccc54)cc(N4CCOCC4)n3n2)CC1` [Compound 51, 1-{5-[2-(difluoromethyl)-1H-1,3-benzimidazol-1-yl]-7-(morpholin-4-yl)pyrazolo[1,5-a]pyrimidine-2-carbonyl}piperidine-4-carbonitrile], on PI3Kδ, the midpoint of inhibition, the IC50, lay at 0.344 µM. On PI3Kγ, the IC50 worked out at 1.63 µM and the “Fold Selectivity γ/δ” value was determined as 4.7.
In the case of `CC(C)(O)C1CCN(C(=O)c2cc3nc(-n4c(C(F)F)nc5ccccc54)cc(N4CCOCC4)n3n2)CC1` [Compound 41], the 50% inhibitory concentration (IC50) against PI3Kδ was found to be 0.101 µM; against PI3Kγ, 2.48 µM. Further, on PI3Kγ, the “Fold Selectivity γ/δ” value is recorded as 25.
Molecule `O=C(c1cc2nc(-n3c(C(F)F)nc4ccccc43)cc(N3CCOCC3)n2n1)N1CCCC1CO` (centres unmarked) [Compound 44, (1-{5-[2-(difluoromethyl)-1H-1,3-benzodiazol-1-yl]-7-(morpholin-4-yl)pyrazolo[1,5-a]pyrimidine-2-carbonyl}pyrrolidin-2-yl)methanol] registered an IC50 on PI3Kδ of 0.459 µM. Moreover, at PI3Kγ, the half-maximal inhibitory concentration (IC50) was 2.02 µM and the “Fold Selectivity γ/δ” value stood at 4.4.
In turn, `O=C(c1cc2nc(-n3c(C(F)F)nc4ccccc43)cc(N3CCOCC3)n2n1)N1CCN(C(=O)C2CC2)CC1` [Compound 43, 1-[2-(4-cyclopropanecarbonylpiperazine-1-carbonyl)-7-(morpholin-4-yl)pyrazolo[1,5-a]pyrimidin-5-yl]-2-(difluoromethyl)-1H-1,3-benzimidazole] gave an IC50 against PI3Kδ of 0.063 µM. Moreover, at PI3Kγ, inhibition was half-maximal at 3.83 µM (IC50) and the “Fold Selectivity γ/δ” value was determined as 61.
As to `FC(F)c1nc2ccccc2n1-c1cc(N2CCOCC2)n2nc(CN3CCC(N4CCOCC4)CC3)cc2n1` [Compound 33, 2-(difluoromethyl)-1-[7-(morpholin-4-yl)-2-{[4-(morpholin-4-yl)piperidin-1-yl]methyl}pyrazolo[1,5-a]pyrimidin-5-yl]-1H-1,3-benzimidazole], the IC50 on PI3Kδ was determined as 0.276 µM. Besides, at PI3Kγ, the IC50 is 4.8 µM and the “Fold Selectivity γ/δ” value turned out to be 17.
`O=C(c1cc2nc(-n3c(C(F)F)nc4ccccc43)cc(N3CCOCC3)n2n1)N1CCC(F)(F)CC1` [Compound 47, 2-(difluoromethyl)-1-[2-(4,4-difluoropiperidine-1-carbonyl)-7-(morpholin-4-yl)pyrazolo[1,5-a]pyrimidin-5-yl]-1H-1,3-benzimidazole] registered an IC50 on PI3Kδ of 0.801 µM. Further, at PI3Kγ, the IC50 was 35.8 µM and the “Fold Selectivity γ/δ” value is 45.
